The numbers were not newly measured in patent US20050065128A1, “2-alkylidene-19-nor-vitamin D derivatives for the treatment of hypogonadism or andropause” (Pfizer Inc, priority 2003, published 2005), which cites them from elsewhere.

Molecules are shown by their SMILES. Like-named read-outs stand apart in the source and are kept apart here.

The test system of data set [1] is HL-60 cells. The note with it: method of Ostrem et al.
For data set [2], the system named is Serum Calcium (Bone Calcium Mobilization). The note with it: for Serum Calcium (mg/100 ml): intraperitoneal, male weanling rats on vitamin D-deficient low-calcium diet, 24 h after last dose, mean ± SEM; for activity on bone calcium mobilization (serum calcium) relative to 1,25-(OH)2D3 (native hormone): chronic 7-day dosing in rats, fold of the native hormone.
Data set [3] has as its system Intestinal Calcium Transport. The conditions noted are these: intraperitoneal, male weanling rats on vitamin D-deficient low-calcium diet, 24 h after last dose, mean ± SEM.

As to `C=C1[C@H](O)CC(=C/C=C2\CCC[C@]3(C)[C@@H]([C@H](C)CCCC(C)(C)O)CC[C@@H]23)C[C@H]1O` [2-Methylene-19-Nor-1,25-(OH)2D3, 1α,25-dihydroxy-2-methylene-19-nor-vitamin D3], the “inducing differentiation of HL-60 cells to the monocyte” value in data set [1] is listed as “activity similar to 1,25-(OH)2D3”. Moreover, the “Serum Calcium (mg/100 ml)” value in data set [2] (130 pmol/day for 7 days) and in data set [2] (260 pmol/day for 7 days) was “extremely strong bone calcium mobilization” each time. In addition, the “activity on bone calcium mobilization (serum calcium) relative to 1,25-(OH)2D3 (native hormone)” value in data set [2] is recorded as 10-100 times. Moreover, the “Intestinal Calcium Transport (S/M)” value in data set [3] (130 pmol/day for 7 days) and in data set [3] (260 pmol/day for 7 days) was “no intestinal calcium transport activity” in each case.

In the case of `C=C1[C@H](O)CC(=C/C=C2\CCC[C@]3(C)[C@@H]([C@@H](C)CCCC(C)(C)O)CC[C@@H]23)C[C@H]1O` [2-Methylene-19-Nor-20S-1,25-(OH)2D3, (20S)-1α,25-dihydroxy-2-methylene-19-nor-vitamin D3], the “inducing differentiation of HL-60 cells to the monocyte” value in data set [1] was “extremely potent”. In addition, in data set [2], the “activity on bone calcium mobilization (serum calcium) relative to 1,25-(OH)2D3 (native hormone)” value is given as “at least 10 times”. Besides, the “Intestinal Calcium Transport (S/M)” value in data set [3] (130 pmol/day for 7 days) and in data set [3] (260 pmol/day for 7 days) was “no significant change” each time.
